# Measurements published in patent US7173063B1, “Topoisomerase poisons for the treatment of proliferative disorders” (Fred Hutchinson Cancer Research Center, priority 2000, dated 2007).
# Tested on: yeast Topo I
# Assay: Toxicity in yeast overexpressing yeast Topo I (yTOP1) or ytop1-vac mutant
# Format: cell-based
# Source text: The strains are derived from the A364a genetic background, with the exception of BY4705, which is derived from the S288C background. Gene disruptions were generated by PCR fragment directed replacement (Baudin, et al., Nucleic Acids Research 21: 3329–30 (1993), Guldener, et al., Nucleic Acids Research 24: 2519–24 (1996)). Yeast overexpressing topoisomerase II was constructed by a PCR fragment directed promoter replacement of the topoisomerase II promoter with the yeast GPD promoter flanked upstream by the URA3 marker. All strains (except BY4705) bear the pleitropic drug sensitizing mutations erg6, pdr1, and pdr3 (Balzi, et al., Journal of Bioenergetics & Biomembranes 27: 71–6 (1995), Delaveau, et al, Molecular & General Genetics 244: 501–11 (1994), Gaber, et al., Molecular & Cellular Biology 9: 3447–56 (1989), Saunders, et al., Canadian Journal of Genetics & Cytology, 24: 493–503 (1982). Subik, et al, Current Genetics 10: 665–70 (1986)). The haploid yeast strain BY4705 (Brachmann, et al., Yeast 14: 115–32 (1998)) was used in the experiments described in FIG. 5. Plasmids expressing yeast or human topoisomerase I genes under the GAL promoter (Knab, et al., Journal of Biological Chemistry 268: 22322–30 (1993). Knab, et al., Journal of Biological Chemistry 270: 6141–8 (1995)) were transformed into BY4705 using standard procedures.
# Yeast toxicity assays were performed essentially as follows: Exponentially growing cultures of the appropriate strains were diluted in synthetic complete media to a concentration of 7.4×10^4 cells/mL, and aliquots (135 μL) were transferred to each well of clear flat-bottomed 96 well plates. Compounds were added in duplicate or triplicate as 15 μL of the appropriate dilution in 5% DMSO. A 15 μL portion of 5% DMSO was added to control wells. […] Cell growth (OD660) in treated wells was plotted as a percentage of the growth in at least four averaged solvent control wells for the same strain. Camptothecin sodium salt (camptothecin Na) was the agent used in all yeast assays as standard.
# In this regard, the sensitivity of yeast strains overexpressing either human or yeast topoisomerase I genes (hTOP1 or yTOP1, respectively) under the control of the inducible GAL promoter (see, for example, Knab, et al., Journal of Biological Chemistry 268: 22322–30 (1993); and Knab, et al., Journal of Biological Chemistry 270: 6141–8 (1995)) were used. Additionally, the sensitivity of yeast overexpressing the Topo I-VAC mutant enzyme, containing two amino acid substitutions (htop1-vac and ytop1-vac) that render topoisomerase I insensitive to the action of camptothecin were also examined (see, for example, Knab, et al., Journal of Biological Chemistry 268: 22322–30 (1993); and Knab, et al., Journal of Biological Chemistry 270: 6141–8 (1995)).
structure (smiles),measurement,setting,value
O=c1c(Cl)c(Cl)cnn1CCCl [compound IIa],"toxicity in yeast overexpressing yTOP1-vac compared to vector control, cell survival by colony formation",colony formation after treatment,is accentuated
same,effect of ytop1-vac (camptothecin-resistant mutant) overexpression on toxicity,relative OD660,effective with both yTOP1 and ytop1-vac
